How the values were obtained:
Assay type in all cases: in vivo
[1] = system: Convolvulus arvensis; test: Greenhouse experiment, post emergence herbicidal activity; conditions: CONAR
Experimental: (§1) For the post emergence treatment, the plants were first grown to the 2 to 4 leaf stage (GS 12/14). The plants were cultivated due to their individual requirements at 10-25° C. and 20-35° C. The plants were irrigated as required.
(§2) Here, the herbicidal compositions were suspended or emulsified in water as distribution medium and sprayed using finely distributing nozzles. 1% methylated seed oil (MSO) has been added as adjuvant to each of the solo and mixture treatments.
(§3) In the greenhouse experiments, the herbicidal activity for the individual herbicidal compositions (solo and mixture applications) was assessed 20/21 days after treatment (DAT).
(§4) The evaluation for the damage on undesired weeds caused by the chemical compositions was carried out using a scale from 0 to 100%, compared to the untreated control plants. Here, 0 means no damage and 100 means complete destruction of the plants.

[2] = system: Erigeron canadensis; test: as above; conditions: ERICA, BBCH 12-14, Flumioxazin 1, Pyraflufen-ethyl 1.5 g ai/ha
Experimental: as §1, §2, §3, §4

[3] = system: Polygonum aviculare; test: as above; conditions: POLAV
Experimental: as §1, §2, §3, §4

[4] = system: Sonchus arvensis; test: as above; conditions: SONAR
Experimental: as §1, §2, §3, §4

[5] = system: Ambrosia artemisiifolia; test: as above; conditions: AMBEL
Experimental: as §1, §2, §3, §4

[6] = system: Chenopodium album; test: as above; conditions: CHEAL, BBCH 12-14, Saflufenacil 4, Clethodim 30 g ai/ha
Experimental: as §1, §2, §3, §4

[7] = system: Hibiscus trionum; test: as above; conditions: HIBTR, BBCH 12-14, Saflufenacil 0.5, Clethodim 30 g ai/ha
Experimental: as §1, §2, §3, §4

[8] = system: Matricaria chamomilla; test: as above; conditions: MATCH, BBCH 12-14, Saflufenacil 0.5, Clethodim 30 g ai/ha
Experimental: as §1, §2, §3, §4

[9] = system: Amaranthus retroflexus; test: Field experiment, post-emergence herbicidal activity; conditions: AMARE, postemergence
Experimental: (§5) Trial Objective: Saflufenacil in tank mix with Pendimethalin efficacy on weeds and grasses in early post-emergence of the weeds
(§6) On field test sites, natural weed infestation was treated, pre-emergence of the weeds on bare soil or post-emergence of the weeds.
(§7) For the post emergence treatment, the weedy plants were treated between the 2-4 true leaf stage (GS12-14) and the 6 true leaf stage (GS 16). The herbicidal compositions were suspended or emulsified in water as distribution medium and sprayed with commercial flat fan nozzles using between 100 and 200 l/ha water.
as §4, with “In the following experiments, the herbicidal activity for the individual herbicidal compositions (solo and mixture applications) was assessed up to 36 days after treatment (DAT). The” for “The”, “assessments” for “evaluation”
(§8) [formula] • where X=effect in percent using herbicide (A) at an application rate a; • Y=effect in percent using herbicide (B) at an application rate b; • E=expected effect (in %) of herbicide (A)+herbicide (B) at application rates a+b.
(§9) The value E corresponds to the effect (plant damage or injury) which is to be expected if the activity of the individual compounds is additive. If the observed effect is higher than the value E calculated according to the Colby equation, a synergistic effect is present.

[10] = system: Echinochloa crus-galli; test: as above; conditions: ECHCG, postemergence
Experimental: as §5, §6, §7
as §4, with “In the following experiments, the herbicidal activity for the individual herbicidal compositions (solo and mixture applications) was assessed up to 36 days after treatment (DAT). The” for “The”, “assessments” for “evaluation”
as §8, §9

[11] = system: Mercuralis annua; test: as above; conditions: MERAN, postemergence, Saflufenacil 12.5, Pendimethalin 1365 g ai/ha
Experimental: as §5, §6, §7
as §4, with “In the following experiments, the herbicidal activity for the individual herbicidal compositions (solo and mixture applications) was assessed up to 36 days after treatment (DAT). The” for “The”, “assessments” for “evaluation”
as §8, §9

[12] = system: Papaver rhoeas; test: Greenhouse experiment, post emergence herbicidal activity; conditions: PAPRH, BBCH 12-14, Flumioxazin 2, Tribenuron-methyl 6 g ai/ha
Experimental: as §1, §2, §3, §4

[13] = system: Setaria viridis; test: as above; conditions: SETVI, BBCH 12-14, Flumioxazin 2, Tribenuron-methyl 6 g ai/ha
Experimental: as §1, §2, §3, §4

[14] = BBCH 12-14, Flumioxazin 0.5, Pyraflufen-ethyl 1.5 g ai/ha
[15] = BBCH 12-14, Saflufenacil 0.5, Clethodim 30 g ai/ha
[16] = Saflufenacil 12.5, Pendimethalin 1064 g ai/ha

**Q.** With `CCOC(=O)COc1cc(-c2nn(C)c(OC(F)F)c2Cl)c(F)cc1Cl` [Pyraflufen-ethyl, ethyl 2-[2-chloro-5-[4-chloro-5-(difluoromethoxy)-1-methylpyrazol-3-yl]-4-fluorophenoxy]acetate] as the compound, how does the “% Herbicidal activity” value ([1]; BBCH12-14, Flumioxazin 0.5, Pyraflufen-ethyl 1.5 g ai/ha) read?
**A.** The value was 70%.

**Q.** And the “% Herbicidal activity” value [2]?
**A.** The value was 80%.

**Q.** And the “% Herbicidal activity” value [3, 14]?
**A.** Its value is 90%.

**Q.** What about the “% Herbicidal activity” value [4, 14] of the same compound?
**A.** The value was 98%.

**Q.** How did the “% Herbicidal activity” value ([5]; BBCH 12-14, Saflufenacil 1, Clethodim 30 g ai/ha) turn out when `CCSC(C)CC1CC(=O)C(/C(CC)=N/OC/C=C/Cl)=C(O)C1` (centres unmarked) [Clethodim] was run?
**A.** Its value is 10%.

**Q.** And the “% Herbicidal activity” value [6]?
**A.** Its value is 0%.

**Q.** And the “% Herbicidal activity” value [1, 15]?
**A.** The value was 0%.

**Q.** And the “% Herbicidal activity” value [7]?
**A.** The value was 10%.

**Q.** What about the “% Herbicidal activity” value [8] of the same compound?
**A.** The value was 0%.

**Q.** And the “% Herbicidal activity” value [3, 15]?
**A.** Its value is 0%.

**Q.** What about the “% Herbicidal activity” value [4, 15] of the same compound?
**A.** Its value is 5%.

**Q.** Which results are given for `CCC(CC)Nc1c([N+](=O)[O-])cc(C)c(C)c1[N+](=O)[O-]` [Pendimethalin]?
**A.** % Herbicidal activity ([9]; Saflufenacil 12.5, Pendimethalin 840 g ai/ha): 37%; % Herbicidal activity [9, 16]: 80%; % Herbicidal activity [10, 16]: 80%; % Herbicidal activity ([10]; Saflufenacil 12.5, Pendimethalin 1365 g ai/ha): 36%; % Herbicidal activity ([10]; Saflufenacil 50, Pendimethalin 1064 g ai/ha): 80%; % Herbicidal activity [11]: 42%

**Q.** For `COC(=O)c1ccccc1S(=O)(=O)NC(=O)N(C)c1nc(C)nc(OC)n1` [Tribenuron-methyl, Methyl 2-[[(4-methoxy-6-methyl-1,3,5-triazin-2-yl)-methylcarbamoyl]sulfamoyl]benzoate], which “% Herbicidal activity” value ([5]; BBCH 12-14, Saflufenacil 1, Tribenuron-methyl 6 g ai/ha) is on record?
**A.** Its value is 90%.

**Q.** And the “% Herbicidal activity” value [12]?
**A.** The value was 95%.

**Q.** What about the “% Herbicidal activity” value [13] of the same compound?
**A.** Its value is 25%.

From patent US20260206757A1, “METHODS OF CONTROLLING UNDESIRABLE PLANTS WITH PPO HERBICIDES AND COMBINATIONS IN HERBICIDE TOLERANT CROP PLANTS” (BASF AGRO B.V., priority 2022, published 2026)
